Data set [1] deals with IBS patients with RLS. Description: Open-label, observational pilot trial: RLS symptom improvement. Format: in vivo, human. From the text:
It was suspected that the patient might have postinfectious IBS and SIBO.
(§1) Patients visiting a community-based adult gastroenterology clinic over a 4-month period were eligible for the study if they presented with functional bowel symptoms and had abnormal lactulose breath test (LBT) results. Patients were excluded if they had celiac disease, Crohn's disease, pancreatic insufficiency, ulcerative colitis, scleroderma, diabetes, chronic renal failure, or surgeries predisposing them to SIBO. A diagnosis of RLS was confirmed using the Johns Hopkins validated interview process.
(§2) This was followed by long-term administration of the prokinetic medicine tegaserod (ZELNORM® produced by Novartis Pharmaceuticals Corporation, East Hanover, N.J.) 3 mg nightly plus short-term treatment with zinc 220 mg/d for one month for increased small intestinal permeability and a bifidobacteria-based probiotic (FLORA-Q® produced by Kenwood Therapeutics, Fairfield, N.J.) once daily for one month. Two patients were treated with rifaximin alone.
(§3) The percentage of RLS symptom improvement was assessed at the end of follow-up.
Thirteen IBS patients with confirmed RLS were included in the study. Eleven of these 13 patients were originally included in a SIBO study of IBS: 19 of 161 patients with an abnormal LBT result thought they had RLS. A diagnosis of RLS was confirmed in 11 of these 19 patients by the Johns Hopkins validated interview process. The remaining 2 of 13 patients with RLS (1 was the propositus and the other was referred from a neurology clinic) had been previously evaluated and treated for RLS by a neurologist.
(§4) The remaining two patients (the neurology clinic patient and propositus) received a modified treatment regimen.
Percentages of RLS and IBS symptom improvement as well as global IBS symptom improvement were assessed at a mean of 107 days (range, 22-450 days). […] The ten patients who responded included the three patients who had borderline or low serum levels of iron at baseline. […]

The conditions of data set [2]: cited from earlier work.
For data set [3], the system named is IBS patients with RLS. Description: Follow-up lactulose breath test (LBT). As to conditions: neurology patient, two months after completing rifaximin therapy. It counts as in vivo, human. The protocol: Patients consumed a low carbohydrate dinner and fasted overnight. Breath samples were collected every 15 minutes for 180 minutes and were analyzed by gas chromatography (using, for example, a QUINTRON DP PLUS MICROLYZER™ manufactured by QuinTron Instrument Company, Milwaukee, Wis.) for levels of hydrogen and methane. After a baseline recording, patients consumed 10 g of lactulose powder (for example, KRISTALOSE® produced by Bertek Pharmaceuticals Inc, Sugar Land, Tex.) dissolved in 240 mL of water. An abnormal LBT result was defined as an increase of greater than 20 ppm above baseline levels for hydrogen and/or methane gas 180 minutes or less after ingesting lactulose. An abnormal flatline LBT result was defined as a lack of a greater than 5-ppm increase above baseline levels for either hydrogen or methane during the 180-minute test. The role of SIBO in IBS and diseases other than restless legs syndrome, as well as the efficacy of breath tests in the diagnosis of SIBO is discussed in U.S. Pat. Nos. 6,861,053; 6,805,852; 7,056,686; and 7,048,906 to Lin and Pimentel, the disclosures of each of which are expressly incorporated by reference herein.

The test system of data set [4] is IBS patients with RLS. Nature of the data set: Open-label, observational pilot trial: GI (IBS) symptom improvement questionnaire. Format: in vivo, human.
From the text: as §1, §2
Each patient completed a questionnaire identifying the occurrence and rating the severity of six IBS symptoms experienced during the week before the LBT was conducted (baseline): abdominal pain, bloating, constipation, diarrhea, flatulence, and postprandial fullness. A history consistent with RLS and fibromyalgia was sought. Serum ferritin levels were measured at baseline.
as §3, §4
Percentages of RLS and IBS symptom improvement as well as global IBS symptom improvement were assessed at a mean of 107 days (range, 22-450 days). […] The ten patients who responded included the three patients who had borderline or low serum levels of iron at baseline. […] Eight of the ten patients with at least 80% improvement in RLS symptoms were followed long-term (mean, 139 days; range, 54-450 days), and 5 of the 8 patients reported complete (100%) resolution of RLS symptoms at the last follow-up visit.

Setting [5] is: day 11, after ten days of rifaximin therapy.
Setting [6] is: end of follow-up (mean 107 days), rifaximin followed by tegaserod, zinc, probiotic in 11 of 13.
The mark [7] stands for this setting: last follow-up visit, 13 patients.

Take `CO[C@H]1/C=C/O[C@@]2(C)Oc3c(C)c(O)c4c(O)c(c5c(nc6cc(C)ccn65)c4c3C2=O)NC(=O)/C(C)=C\C=C\[C@H](C)[C@H](O)[C@@H](C)[C@@H](O)[C@@H](C)[C@H](OC(C)=O)[C@@H]1C` [rifaximin]: the “patients reporting complete (100%) resolution of RLS symptoms at the last follow-up visit” value in data set [1] (of 8 responders followed long-term (mean 139 days; range 54-450 days)) is on record as 5 of the 8. In addition, the “patients exhibiting at least 80% improvement in RLS symptoms at the last follow-up visit” value in data set [1] (rifaximin 400 mg three times daily for ten days, in 11 of 13 followed by tegaserod, zinc, probiotic, assessed at mean 107 days (range 22-450)) is reported as “Ten of 13”. In data set [1] (single patient (propositus), empiric treatment with rifaximin), the “response for both RLS and IBS symptoms” value is “dramatic, rapid, and prolonged response”. In data set [2], the “solubility in water” value is on record as “practically insoluble in water”. In addition, the “LBT result after therapy” value in data set [3] was “normal”. Further, in data set [4] (setting [5]), the “GI symptom improvement: abdominal pain” value was 74%, the “GI symptom improvement: bloating” value was determined as 70%, the “GI symptom improvement: constipation” value is 64% and the “GI symptom improvement: diarrhea” value turned out to be 73%. In data set [4] (setting [5]), the “GI symptom improvement: flatulence” value is recorded as 47% and the “GI symptom improvement: postprandial fullness” value stood at 65%. For the same molecule, in data set [4] (setting [6]), the “GI symptom improvement: abdominal pain” value worked out at 81%, the “GI symptom improvement: bloating” value is reported as 76%, the “GI symptom improvement: constipation” value amounted to 59% and the “GI symptom improvement: diarrhea” value came out at 68%. Besides, in data set [4] (setting [6]), the “GI symptom improvement: flatulence” value is 55% and the “GI symptom improvement: postprandial fullness” value is reported as 67%. In data set [4] (setting [7]), the “global symptom improvement rated as greatly improved” value came out at 6 patients, the “global symptom improvement rated as mildly improved” value is recorded as “two” and the “global symptom improvement rated as moderately improved” value was “five”.

These data come from US20080159987A1 (priority 2007, published 2008).
